Reference: ChEMBL document CHEMBL1201862, “PubChem BioAssay data set” (2004)
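Growth conditions: 96-well plates. Treatment: test compound, 48 hours, 5 concentrations. Analysis: linear interpolation between bracketing concentrations; unreached endpoints set to highest concentration. At the GI50, growth is halved.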 The source made the active and inactive calls. Rule as the data show it: active = GI50 up to about 1.1 µM and inactive = higher.

Legend:
Assay in all cases: NCI-60 cell line screen, 48 h
T47D = system: T47D
K562 = system: K562
Malme-3M = system: Malme-3M
MOLT-4 = system: MOLT-4
OVCAR-8 = system: OVCAR-8
SF-268 = system: SF-268
TK-10 = system: TK-10
COLO 205 = system: COLO 205
DU-145 = system: DU-145
MDA-MB-231 = system: MDA-MB-231
Hs-578T = system: Hs-578T
786-0 = system: 786-0
NCI-H460 = system: NCI-H460
CAKI-1 = system: CAKI-1
IGROV-1 = system: IGROV-1
MCF7 = system: MCF7
ACHN = system: ACHN
MDA-MB-435 = system: MDA-MB-435
HOP-92 = system: HOP-92
SK-MEL-2 = system: SK-MEL-2

Measured: GI50

CCCCCCC(O)C(=O)OC1C2C(CC1(C)C)C(O)C13OC1C(O)C1(CO1)[C@@]23C (stereo partly drawn)
inactive: T47D 62.5 µM | K562 30.3 µM | Malme-3M > 100 µM | MOLT-4 16.1 µM | OVCAR-8 69.8 µM | SF-268 20.1 µM | TK-10 44.9 µM | COLO 205 49.2 µM | DU-145 > 100 µM | MDA-MB-231 48.6 µM | Hs-578T 28.2 µM | 786-0 25.4 µM | NCI-H460 > 10 µM | CAKI-1 > 100 µM | IGROV-1 43 µM | MCF7 36.4 µM | ACHN > 10 µM | MDA-MB-435 50.9 µM

CN(C)/C=N/c1ccc2c3c(cccc13)-c1ccccc1-2
inactive: T47D 15 µM | K562 10.2 µM | Malme-3M 18.5 µM | MOLT-4 10.1 µM | OVCAR-8 14.6 µM | SF-268 12.5 µM | TK-10 13.8 µM | COLO 205 16.6 µM | DU-145 12.7 µM | MDA-MB-231 14.3 µM | Hs-578T 10.3 µM | HOP-92 12.4 µM | 786-0 12.6 µM | SK-MEL-2 17.1 µM | IGROV-1 15.5 µM | MCF7 16.8 µM | ACHN 16 µM | MDA-MB-435 15.1 µM

CN1CCN(CCCN)CC1
inactive: T47D > 100 µM | K562 > 100 µM | Malme-3M > 100 µM | MOLT-4 > 100 µM | OVCAR-8 > 100 µM | SF-268 > 100 µM | TK-10 > 100 µM | COLO 205 > 100 µM | DU-145 > 100 µM | MDA-MB-231 > 100 µM | Hs-578T > 100 µM | 786-0 > 100 µM | SK-MEL-2 > 100 µM | CAKI-1 > 100 µM | IGROV-1 > 100 µM | MCF7 > 100 µM | ACHN > 100 µM | MDA-MB-435 > 100 µM

CC(C)OCC(O)COc1ccc2ccc(=O)oc2c1 (stereo not drawn)
inactive: T47D > 100 µM | K562 > 100 µM | Malme-3M > 100 µM | MOLT-4 > 100 µM | OVCAR-8 > 100 µM | SF-268 > 100 µM | TK-10 > 100 µM | COLO 205 > 100 µM | DU-145 > 100 µM | MDA-MB-231 > 100 µM | Hs-578T > 100 µM | HOP-92 > 100 µM | 786-0 > 100 µM | NCI-H460 > 100 µM | CAKI-1 > 100 µM | IGROV-1 > 100 µM | MCF7 > 100 µM | ACHN > 100 µM | MDA-MB-435 > 100 µM
